What all share (type): in vivo
Assay [1] deals with dizocilpine-induced PPI deficits in mice. Briefly: prepulse inhibition of the acoustic startle reflex, dizocilpine-induced PPI deficits in mice. The conditions noted are these: dizocilpine 0.1 mg/kg, cilostazol administered one hour before testing, dose dependent manner. The method, then: The test animals were prepared by similar means of the above Example 2. Cilostazol was administered one hour before testing. Testing was conducted in eight startle devices each consisting of a Plexiglas cylinder (5 cm in diameter) mounted on a Plexiglas platform in a ventilated sound attenuated cubicle with a high-frequency loudspeaker producing all acoustic stimuli. The background noise of each chamber was 65 dB. Movements within the cylinder were detected and transduced by a piezoelectric accelerometer attached to the Plexiglas base and digitized and stored by a computer. Beginning at the stimulus onset, readings were recorded to obtain the animals' startle amplitude. Each section was initiated with a 10 minutes acclimation period followed by six successive trials, which were not included in the analysis. Startle pulse alone (ST110, 110 dB/40 msec); eight different prepulse trials in which either 20-msec-long 69, 73, 77, and 81 dB stimuli were presented alone (P69, P73, P77, P81) or preceded the 110 dB pulse by 100 msec (PP69, PP73, PP77, PP81); and finally one trial in which only the background noise was presented to measure the baseline movements in the cylinder. All trials were presented in a pseudorandom order, and the average intertrial interval (ITI) was […]. The startle data and percentage prepulse inhibition (PPI) were analyzed by MANOVA (two-ways ANOVA).

For assay [2], the system named is locomotion of mice enhanced by administering dizocilpine. Briefly: dizocilpine-induced hyperlocomotion in mice. The conditions noted are these: male ddY mice; cilostazol 0.03-3.0 mg/kg orally 30 minutes before dizocilpine 0.1 mg/kg s.c.; locomotion measured for 2 hours. The procedure: In this experiment, cilostazol was studied about the effect affecting the locomotion of mice which was enhanced by administering dizocilpine.
Male ddY mice (7-8 weeks old) were put in a scanning apparatus of spontaneous motor activity (SCANET SV-10, Melquest, Toyama, Japan). After 30 minutes, vehicle (0.3% CMC) or cilostazol (0.03, 0.1, 0.3, 1.0, and 3.0 mg/kg) was orally administered to the mice, and after additional 30 minutes dizocilpine (0.1 mg/kg) was administered subcutaneously. Then, the locomotion of the mice was measured for 2 hours.

Assay [3] deals with model animals prepared with phencyclidine. Briefly: re-recognizing test for a new object in model animals prepared with phencyclidine. The conditions noted are these: male ICR mice, phencyclidine 10 mg/kg s.c. 10 days. The method, then: Male ICR mice (6 weeks old, 25-30 g, purchased from Japan SLC, Inc.) were used as experimental animals. The experimental procedure was approved by the laboratory animal ethics committee in the Graduate School of Medicine and School of Medicine, Chiba University. Phencyclidine was subcutaneously administered to the mice in 10 mg/kg once a day for 10 days. […] Twenty four hours after the final administration, re-recognizing test for a new object was carried out. The re-recognizing test for a new object was carried out using a black open-field (50.8×50.8×25.4 cm). The mice were made to be trained in the open-field for three days before starting the re-recognizing test for a new object. Two objects which have almost the same size but different shapes and colors were set separating off in a distance of 35.5 cm, and then the mice were made to seek for 10 minutes. After the seeking, the mice were put back to the gauge. Twenty four hours after the first seeking, a memory retention test was carried out. On this memory retention test, one of the objects was replaced by a new one. The mice were made to seek for 5 minutes, and the time which was taken to seek each object was recorded. The results were shown as a ratio of the seeking time of the new object against that of the two objects. The data were shown as mean±standard deviation. The statistical analyses thereof were carried out using one-way ANOVA and post-hoc Bonferroni test. A p-value of 0.05 or less was considered as a statistical significance.

SMILES strings stand for the structures.

`O=C1CCc2cc(OCCCCc3nnnn3C3CCCCC3)ccc2N1` [cilostazol, 6-[4-(1-cyclohexyl-1H-tetrazol-5-yl)butoxy]-3,4-dihydrocarbostyril]: in assay [1], the “PPI deficits caused by administration of dizocilpine” value is given as “significantly inhibited”. Further, the “locomotion enhanced by administering dizocilpine” value in assay [2] is recorded as “significantly inhibited”. In addition, the “condition of schizophrenia caused by phencyclidine (ratio of the seeking time of the new object)” value is “improved significantly” in assay [3] (cilostazol 3 mg/kg orally once a day for two weeks); “improved significantly” in assay [3] (cilostazol 10 mg/kg orally once a day for two weeks); “improved significantly” in assay [3] (cilostazol 30 mg/kg orally once a day for two weeks); “improved” in assay [3] (cilostazol orally once a day for two weeks, dose-dependently).

The values above are taken from patent US8431606B2, “Medicament for treating schizophrenia comprising cilostazol” (Otsuka Pharmaceutical Co., Ltd., priority 2007, dated 2013).
